Measurements from paper PMC11840788, “3,3′-Diindolylmethane (DIM): A Molecular Scaffold for Inhibition of WWP1 and WWP2, Members of the NEDD4 Family HECT E3 Ligases” (ACS Omega, 2025).

Experiments:
[1] = biological target: T1, WWP1-2L34H (Homo sapiens, UniProt Q9H0M0); test: differential scanning fluorimetry (DSF), WWP1; type: binding; settings: 100 μM compound, 0.1% DMSO, Boltzmann fit
T1 construct: WWP1-WW2-2,3-linker-WW3-WW4-HECT (WWP1-2L34H); His-Trx (3C site) (N, cleaved yes); made in house; host or cells: E. coli BL21-CodonPlus RP (plasmid pET32a-WWP1-2L34H, gift of Dr Wenyu Wen)
T1 sequence (Q9H0M0 379-922 limits assumed): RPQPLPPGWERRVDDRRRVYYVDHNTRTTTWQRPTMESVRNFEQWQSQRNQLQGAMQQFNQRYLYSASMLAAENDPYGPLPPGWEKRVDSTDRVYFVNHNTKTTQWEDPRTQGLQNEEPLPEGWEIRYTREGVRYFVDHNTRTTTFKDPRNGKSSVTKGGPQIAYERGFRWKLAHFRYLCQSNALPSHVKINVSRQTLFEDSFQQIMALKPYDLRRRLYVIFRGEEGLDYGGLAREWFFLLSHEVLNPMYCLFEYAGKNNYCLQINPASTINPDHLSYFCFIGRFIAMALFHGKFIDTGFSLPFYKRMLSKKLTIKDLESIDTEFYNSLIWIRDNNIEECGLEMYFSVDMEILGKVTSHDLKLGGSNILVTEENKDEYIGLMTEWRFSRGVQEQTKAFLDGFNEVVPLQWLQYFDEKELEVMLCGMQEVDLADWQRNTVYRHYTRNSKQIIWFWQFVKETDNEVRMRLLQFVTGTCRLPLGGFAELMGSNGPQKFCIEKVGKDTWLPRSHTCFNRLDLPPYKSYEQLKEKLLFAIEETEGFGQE
Excerpt: Differential scanning fluorimetry (DSF) was utilized to initially assess interactions of I3C with both WWP1 and WWP2. Although binding of I3C to WWP1 has been reported previously,[25] we wanted to determine whether such interactions are observed with a protein construct containing the WW2 domain, given its proximity to the proposed exo binding site. In this regard, the WWP1-WW2-2,3-linker-WW3-WW4-HECT (WWP1-2L34H) and WWP2-WW2-2,3-linker-HECT (WWP2-LH) constructs were chosen (SI Figure S2) and DSF assays performed using 100 μM I3C (0.1% DMSO) with midpoint melting temperature (Tm) determined by fitting a Boltzmann regression to the melting curve (Figure 2A). Three independent repeat experiments were performed. […] This is in marked contrast to that seen when using the simple WWP1 HECT domain as a target.[30]
A 96 well-plate (MicroAmp Optical) was loaded with 18 μL of 3.8 μM WWP1-2L34H and 2.5 μM WWP2-LH, in their respective buffers (SI Table S5) containing 5 × SYPRO orange dye. […] The plates were briefly centrifuged before the assay was run using an ABI 7500 RT-PCR following the melt curve using ROX (575 nm) as the “preset” fluorescence dye. […] The midpoint melting temperature (Tm) was calculated using a Boltzmann fit to the fluorescence curve using Protein Thermal Shift Software v1.4 (ThermoFisher). […]

[2] = biological target: WWP1 HECT domain; design: method as in PMID 31097636; settings: microscale thermophoresis, read-out: KD (dissociation constant) WWP1; cited from earlier work

SMILES: OCc1c[nH]c2ccccc12 [Compound I3C, Indole-3-carbinol, reference compound]
- ΔTm at 100 µM [1]: 0.47 ± 0.15 °C
- Kd [2]: 450 nM
